Results on one compound are retold here after patent publication US20260001910A1, “PEPTIDES AND USES THEREOF” (PreveCeutical Medical Inc., priority 2021, published 2026).

One data set has as its system uPA. As to the kind of experiment: Casein-plasminogen zymography of conditioned media (uPA production). Type of data set: cell-based, human. The note with it: for uPA production: conditioned medium, compared to no-peptide control. From the text:
To assess whether the peptide SEQ ID NO. 1 impacted MMP-2, MMP-9 and uPA production Zymography was used.
Zymography is a technique for studying hydrolytic enzymes on the basis of substrate degradation (Vandooren, J. et al. 2013). The in-gel zymography hydrolytic enzymes are separated by their molecular weights and detected by their ability to degrade a substrate. To detect the activity of MMP-2 and MMP-9 in various cell lines, conditioned media were collected in 3 independent experiments and analysed by gelatin zymography to quantify the level of gelatin digestion, which reflects MMP-2 and MMP-9 activity and production. Cascin-Plasminogen zymography was conducted to determine the activity level of uPA in the conditioned medium from various cell lines. Active uPA converts plasminogen into plasmin which then digests casein, thus clear bands where digestion of casein have occurred indirectly represent uPA activity.
The effect of the peptides on matrix protease production was tested using in-gel zymography. If the substrate included in the gel is gelatin, the enzymes detected are gelatinases: MMP-2 and MMP-9 (the latter is often of low abundance). If the gel contains casein and plasminogen, the enzymes tested are urokinase plasminogen activators (uPA); uPA is a therapeutic target in GBM.
An equal amount of protein from each sample was mixed with 5 μL of Laemmli buffer (0.01% Bromophenol Blue (W/V), 5% SDS (W/V), 22% glycerol (V/V), 14% 0.5 M Tris pH 6.8 (V/V)) and loaded onto a 10% polyacrylamide gel co-polymerized with 1 mg/ml of gelatin, and electrophoresed at 120V for 2 hours on ice. The gel was incubated in […] solution (Triton X-100 2.5% (V/V), 1 M Tris pH 7.5 5% (V/V), 0.5 M CaCl2) 1% (W/V) at room temperature overnight on an orbital shaker. The gel was incubated in a second solution for 3 hours at 37° C. The gel was then stained with Coomassie blue solution (Coomassie blue 0.25%, methanol 45%, acetic acid 10%) and destained in methanol 25% (V/V), acetic acid 10% (V/V) destaining solution until clear bands against the dark background appeared around 72 kDa and 95 kDa, representing MMP-2 and MMP-9 activity, respectively. Clear bands around 50 kDa appeared against the dark background representing uPA activity. The gels were scanned, and uPA, MMP-2 and MMP-9 were quantified by densitometry using NIH Image J software.
SEQ ID NO. 1 was compared to a control containing no peptide to evaluate whether the peptide can reduce the production of matrix proteinases. A reduction in the production of matrix proteinases may be anticipated to result in comparatively less degradation of the extra-cellular matrix and so this could be one pathway by which the invasion potential could be reduced.

On data set [1], the source says:
(§1) The MTT (3-[4.5-dimethylthiazol-2-yl]-2,5=diphenyl tetrazolium bromide) assay is based on a process undertaken by living cells, involving the conversion of MTT into formazan crystals. This assay is used routinely to measure the in vitro cytotoxic effects of drugs on cell lines or primary patient cells (Van Meerloo et al., 2011).
(§2) The glioblastoma multiforme (GBM) cell lines used were U87 and U251 cells and patient derived cells grown as oncospheres (081024 cells). Human adherent GBM cell lines U87 and U251 were cultured in RPMI medium (Life Technologies Melbourne Australia) supplemented with 5% v/v FBS, 100 U/mL penicillin and 100 μg/mL streptomycin. 081024 cells were cultured in NeuroCult™ NS-A Proliferation medium with 0.2% (v/v) hepain, 20 ng/mL EGF and 10 ng/ml FGF.
(§3) 8×10^3 U87 and 7×10^3 U251 cells per well were seeded in 96 well plates in 200 μL serum-containing RPMI medium and incubated at 37° C. with 5% CO2 for 24 hours. After one wash with serum-free medium, 100 μL serum-free medium with different concentration of peptide SEQ ID NO:1 was added to each well. After 48 hours incubation, 10 μL of 0.5 mg/mL MTT was added and incubated for 2 hours at 37° C. Formazan crystals were dissolved by 200 μL/well dimethyl sulfoxide (DMSO) and shaking for 15 minutes. The UV absorbance was read with an iMark™ microplate absorbance reader at 595 nm (Bio-Rad Laboratories). Background absorbance was subtracted and results expressed as the % viability of control (untreated cells).

Data set [2] has as its system U87, U251 and 081024 cells. Conditions: MTT, all three GBM cell lines.
Text: as §1, §2, §3

`CC(C)C[C@@H](NC(=O)[C@@H](Cc1ccccc1)NC(=O)CNC(=O)CNC(=O)[C@H](N)Cc1ccc(O)cc1)C(=O)N[C@H](CCCNC(=N)N)C(=O)N[C@H](CCCNC(=N)N)C(N)=O` [SEQ ID NO. 1, tyr-Gly-Gly-phe-leu-arg-arg-NH2] came in with a uPA production in the data set with uPA (081024 cells) of 97.57 ± 13.7. This compound also yielded a uPA production in the data set on uPA (U87 cells) of 109.1 ± 12.41. The compound further yielded a uPA production in the data set with uPA (U251 cells) of 95.22 ± 12.83. Further, the “effect on production of uPA (in words)” value in the data set on uPA (overall, versus no-peptide control) is reported as “did not decrease the production”. Further, in data set [1], the viability (commonly a per cent measure of how many cells are alive, often set against a control) at 5 µM stood at 95.8%; the viability at 50 µM stood at 99.1%; the viability at 100 µM worked out at 93.4%. Moreover, in data set [2], the “highest concentration which did not significantly affect cell viability” value was found to be 0.5 mM.
